In patent US20110172147A1, “NEUROPEPTIDE-2 RECEPTOR (Y-2R) AGONISTS” (priority 2009, published 2011):

What was measured:
Assay type in all cases: cell-based
Y1R = target: T1, Y1R (Homo sapiens, UniProt P25929); assay: CaFlux Assay (FLIPR), Y1R
T1 sequence (P25929 1-384): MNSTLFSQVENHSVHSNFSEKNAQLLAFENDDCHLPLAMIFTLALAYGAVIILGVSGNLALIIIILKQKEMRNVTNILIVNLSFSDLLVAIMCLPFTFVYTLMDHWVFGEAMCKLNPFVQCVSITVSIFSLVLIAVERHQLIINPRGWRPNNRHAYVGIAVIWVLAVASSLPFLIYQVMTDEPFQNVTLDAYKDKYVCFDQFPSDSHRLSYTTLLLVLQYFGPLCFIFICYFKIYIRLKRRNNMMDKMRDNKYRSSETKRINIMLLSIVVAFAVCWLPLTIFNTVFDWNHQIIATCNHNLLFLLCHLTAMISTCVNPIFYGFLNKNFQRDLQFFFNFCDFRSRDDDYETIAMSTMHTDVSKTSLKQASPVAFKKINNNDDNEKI

Y4R = Y4R (Homo sapiens, UniProt P50391); assay: CaFlux Assay (FLIPR), Y4R
Y4R, sequence (P50391 whole entry): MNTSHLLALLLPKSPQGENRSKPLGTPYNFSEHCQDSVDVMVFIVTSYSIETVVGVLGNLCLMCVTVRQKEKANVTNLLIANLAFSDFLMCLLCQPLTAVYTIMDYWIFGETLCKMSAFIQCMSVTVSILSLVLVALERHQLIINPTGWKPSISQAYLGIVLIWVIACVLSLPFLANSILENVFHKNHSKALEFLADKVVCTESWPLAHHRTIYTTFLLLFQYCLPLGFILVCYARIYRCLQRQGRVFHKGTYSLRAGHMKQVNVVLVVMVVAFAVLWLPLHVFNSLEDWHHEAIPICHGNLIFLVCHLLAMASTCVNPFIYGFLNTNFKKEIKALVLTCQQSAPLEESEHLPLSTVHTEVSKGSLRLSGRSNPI

Y5R = target: T2, Y5R (Homo sapiens, UniProt Q15761); assay: CaFlux Assay (FLIPR), Y5R
T2 sequence (Q15761 1-445): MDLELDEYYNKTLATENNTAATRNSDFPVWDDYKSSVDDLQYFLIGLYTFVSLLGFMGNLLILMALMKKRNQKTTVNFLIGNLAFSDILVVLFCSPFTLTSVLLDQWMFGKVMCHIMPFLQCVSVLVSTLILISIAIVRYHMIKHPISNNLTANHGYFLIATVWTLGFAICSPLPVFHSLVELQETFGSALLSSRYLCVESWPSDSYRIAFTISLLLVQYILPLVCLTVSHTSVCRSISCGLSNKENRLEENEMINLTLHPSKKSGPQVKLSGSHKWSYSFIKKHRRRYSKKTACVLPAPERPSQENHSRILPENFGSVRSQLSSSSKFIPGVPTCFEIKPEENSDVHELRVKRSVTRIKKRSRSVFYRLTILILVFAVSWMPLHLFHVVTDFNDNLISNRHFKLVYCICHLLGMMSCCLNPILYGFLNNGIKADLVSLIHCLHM

hNPY2R [1] = target: T3, hNPY2R (Homo sapiens, UniProt P49146); assay: cAMP Agonist Assay, HEK293/hNPY2R; design: expressed in transfected cells; host or cells: HEK293/hNPY2R (G418 selection)
T3 sequence (P49146 1-381): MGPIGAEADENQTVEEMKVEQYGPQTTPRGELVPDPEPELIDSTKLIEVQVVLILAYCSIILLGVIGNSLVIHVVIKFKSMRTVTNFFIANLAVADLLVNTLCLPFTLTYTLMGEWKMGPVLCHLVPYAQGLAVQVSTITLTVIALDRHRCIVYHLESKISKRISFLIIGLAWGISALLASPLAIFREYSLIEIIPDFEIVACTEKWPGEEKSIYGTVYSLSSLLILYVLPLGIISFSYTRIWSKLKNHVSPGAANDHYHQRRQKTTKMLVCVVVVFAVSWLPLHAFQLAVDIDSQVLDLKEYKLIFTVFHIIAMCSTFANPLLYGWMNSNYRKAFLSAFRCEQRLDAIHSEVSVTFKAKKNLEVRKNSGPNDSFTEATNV
Method: In this example, the following materials were used: 384-well plate; Tropix cAMP-Screen Kit; cAMP ELISA System (Applied Biosystems, cat. #T1505; CS 20000); Forskolin (Calbiochem cat. # 344270); cells: HEK293/hNPY2R; growth medium: Dulbecco's modified eagle medium (D-MEM, Gibco); 10% Fetal bovine serum (FBS, Gibco), heat-inactivated; 1% Penicillin/Streptomycin (Pen 10000 unit/mL: Strep […], Gibco); […] G418 (Geneticin, Gibco cat. # 11811-031); and plating medium: DMEM/F12 w/o phenol red (Gibco); 10% FBS (Gibco, cat. # 10082-147), heat-inactivated; 1% Penicillin/Streptomycin (Gibco, cat. # 15140-122); […] G418 (Geneticin, Gibco, cat. # 11811-031).
On the first day, medium was discarded, and the monolayer cells were washed with 10 mL PBS per flask (T225). After decanting with PBS, 5 mL VERSENE (Gibco, cat #1504006) was used to dislodge the cells (5 min @37 C). The flask was gently tapped and the cell suspension was pooled. Each flask was rinsed with 10 mL plating medium and centrifuged at 1000 rpm for 5 min. The suspension was pooled and counted. The suspension was resuspended in plating medium at a density of 2.0×10^5 cells/mL for HEK293/hNPY2R. 50 microliters of cells (HEK293/hNPY2R-10,000 cells/well) were transferred into the 384-well plate using Multi-drop dispenser. The plates were incubated at 37° C. overnight. On the second day, the cells were checked for 75-85% confluence. The media and reagents were allowed to come to room temperature. Before the dilutions were prepared, the stock solution of stimulating compound in dimethyl sulphoxide (DMSO, Sigma, cat #D2650) was allowed to warm up to 32 C for 5-10 min. The dilutions were prepared in DMEM/F12 with 0.5 mM 3-Isobutyl-1-methylxanthine (IBMX, Calbiochem, cat #410957) and 0.5 mg/mL BSA. The final DMSO concentration in the stimulation medium was 1.1% with Forskolin concentration of 5 μM. The cell medium was tapped off with a gentle inversion of the cell plate on a paper towel. 50 μL of stimulation medium was placed per well (each concentration done in four replicates). The plates were incubated at room temperature for 30 min, and the cells were checked under a microscope for toxicity. After 30 minutes of treatment, the stimulation media was discarded and […] of Assay Lysis Buffer (provided in the Tropix kit) was added. The plates were incubated for 45 min @ 37° C. 20 μL of the lysate was transferred from stimulation plates into the pre-coated antibody plates (384-well) from the Tropix kit. 10 μL of AP conjugate and 20 μL of anti-cAMP antibody was added. The plates were incubated at room temperature while shaking for 1 hour. The plates were then washed 5 times with Wash Buffer, 70 μL per well for each wash. The plates were tapped to dry. 30 μL/well of CSPD/Saphire-II RTU substrate/enhancer solution was added and incubated for 45 min @ RT (shake). Signal for 1 sec/well in a Luminometer. (VICTOR-V) was measured.

hNPY2R [2] = target: T3, hNPY2R; assay: CaFlux Assay (FLIPR), Y2R; design: expressed in transfected cells; host or cells: HEK-293 stably transfected with G protein chimera Gαqi9
Method: HEK-293 cells were stably transfected with the G protein chimera Gαqi9 and the hygromycin-B resistance gene were further transfected with the human NPY2 receptor and G418 antibiotic selection. Following selection in both hygromycin-B and G418, individual clones were assayed for their response to PYY. The transfected cells were cultured in DMEM medium supplemented with 10% fetal bovine serum, 50 μg/mL hygromycin-B, 2 mM glutamine, 100 U/mL penicillin, 100 μg/mL streptomycin and 250 μg/mL G418. Cells are harvested with trypsin-EDTA and counted using ViaCount reagent. The cell suspension volume is adjusted to 4.8×10^5 cells/mL with complete growth media. Aliquots of 25 μL are dispensed into 384 well Poly-D Lysine coated black/clear microplates (Falcon) and the microplates were placed in a 37° C. CO2 incubator overnight. Loading Buffer (Calcium-3 Assay Kit, Molecular Devices) was prepared by dissolving the contents of one vial (Express Kit) into […] Hank's Balanced Salt Solution containing 20 mM HEPES and 5 mM probenecid. Aliquots of 25 μL of diluted dye were dispensed into the cell plates and the plates are then incubated for 1 hour at 37° C. During the incubation, test compounds were prepared at 3.5× the desired concentration in HBSS (20 mM HEPES)/0.05% BSA/1% DMSO and transferred to a 384-well plate for use on FLIPR. After incubation, both the cell and compound plates were brought to the FLIPR and 20 μL of the diluted compounds were transferred to the cell plates by the FLIPR. During the assay, fluorescence readings were taken simultaneously from all 384 wells of the cell plate every 1.5 seconds. Five readings were taken to establish a stable baseline, and then 20 μL of sample was rapidly (30 μL/sec) and simultaneously added to each well of the cell plate. The fluorescence was continuously monitored before, during and after sample addition for a total elapsed time of 100 seconds. Responses (increase in peak fluorescence) in each well following addition were determined. The initial fluorescence reading from each well, prior to ligand stimulation, was used as a zero baseline value for the data from that well. The responses are expressed as % of maximal response of the positive control.

Row | Compound | EC50 (Y1R) [nM] | EC50 (Y4R) [nM] | EC50 (Y5R) [nM] | EC50 (hNPY2R [1]) [nM] | EC50 (hNPY2R [2]) [nM]
1 | CCCCCCCCCCCCCCCC(=O)NCCOCCNC(=O)CCC(=O)NCCCC[C@H](NC(=O)[C@@H](NC(=O)CCOCCOCCOCCOCCOCCOCCOCCOCCOCCOCCOCCOCCOCCOCCOCCOCCOCCOCCOCCOCCOCCOCCOCCOC)[C@@H](C)CC)C(=O)N1CCN(c2ccc3ncn(CC(=O)N[C@@H](CCCNC(N)=O)C(=O)N[C@@H](Cc4c[nH]cn4)C(=O)N[C@@H](Cc4ccc(O)cc4)C(=O)N[C@@H](CC(C)C)C(=O)N[C@@H](CC(N)=O)C(=O)N[C@@H](Cc4c[nH]c5ccccc45)C(=O)N[C@H](C(=O)N[C@H](C(=O)N[C@@H](CCCNC(=N)N)C(=O)N[C@@H](CCC(N)=O)C(=O)N(C)[C@@H](CCCNC(=N)N)C(=O)N[C@@H](Cc4ccc(O)cc4)C(N)=O)[C@@H](C)O)C(C)C)c(=O)c3c2)CC1 [Example 16] | > 5000 | > 5000 | 1360 | 0.09 | 0.059
2 | CC[C@H](C)[C@H](NC(=O)CCCCCNC(=O)CCOCCOCCOCCOCCOCCOCCOCCOC)C(=O)N[C@@H](CCCCN)C(=O)N1CCN(c2ccc3ncn(CC(=O)N[C@@H](CCCNC(=N)N)C(=O)N[C@@H](Cc4c[nH]cn4)C(=O)N[C@@H](Cc4ccc(O)cc4)C(=O)N[C@@H](CC(C)C)C(=O)N[C@@H](CC(N)=O)C(=O)N[C@@H](Cc4c[nH]c5ccccc45)C(=O)N[C@H](C(=O)N[C@H](C(=O)N[C@@H](CCCNC(=N)N)C(=O)N[C@@H](CCC(N)=O)C(=O)N(C)[C@@H](CCCNC(=N)N)C(=O)N[C@@H](Cc4ccc(O)cc4)C(N)=O)[C@@H](C)O)C(C)C)c(=O)c3c2)CC1 [Example 17] | > 6000 | > 6000 | > 6000 | 1.4 | 0.479
3 | CC[C@H](C)[C@H](NC(=O)CCCCCNC(=O)CCOCCOCCOCCOCCOCCOCCOCCOCCOCCOCCOCCOC)C(=O)N[C@@H](CCCCN)C(=O)N1CCN(c2ccc3ncn(CC(=O)N[C@@H](CCCNC(=N)N)C(=O)N[C@@H](Cc4c[nH]cn4)C(=O)N[C@@H](Cc4ccc(O)cc4)C(=O)N[C@@H](CC(C)C)C(=O)N[C@@H](CC(N)=O)C(=O)N[C@@H](Cc4c[nH]c5ccccc45)C(=O)N[C@H](C(=O)N[C@H](C(=O)N[C@@H](CCCNC(=N)N)C(=O)N[C@@H](CCC(N)=O)C(=O)N(C)[C@@H](CCCNC(=N)N)C(=O)N[C@@H](Cc4ccc(O)cc4)C(N)=O)[C@@H](C)O)C(C)C)c(=O)c3c2)CC1 [Example 18] | > 6000 | > 6000 | > 6000 | 0.9 | 0.357
4 | CC[C@H](C)[C@H](NC(=O)CCCCCNC(=O)CCOCCOCCOCCOCCOCCOCCOCCOCCOCCOCCOCCOCCOCCOCCOCCOC)C(=O)N[C@@H](CCCCN)C(=O)N1CCN(c2ccc3ncn(CC(=O)N[C@@H](CCCNC(=N)N)C(=O)N[C@@H](Cc4c[nH]cn4)C(=O)N[C@@H](Cc4ccc(O)cc4)C(=O)N[C@@H](CC(C)C)C(=O)N[C@@H](CC(N)=O)C(=O)N[C@@H](Cc4c[nH]c5ccccc45)C(=O)N[C@H](C(=O)N[C@H](C(=O)N[C@@H](CCCNC(=N)N)C(=O)N[C@@H](CCC(N)=O)C(=O)N(C)[C@@H](CCCNC(=N)N)C(=O)N[C@@H](Cc4ccc(O)cc4)C(N)=O)[C@@H](C)O)C(C)C)c(=O)c3c2)CC1 [Example 19] | > 6000 | > 6000 | > 6000 | 0.26 | 0.424
5 | CC[C@H](C)[C@H](NC(=O)CCCCCNC(=O)CCOCCOCCOCCOCCOCCOCCOCCOCCOCCOCCOCCOCCOCCOCCOCCOCCOCCOCCOCCOCCOCCOCCOCCOC)C(=O)N[C@@H](CCCCN)C(=O)N1CCN(c2ccc3ncn(CC(=O)N[C@@H](CCCNC(=N)N)C(=O)N[C@@H](Cc4c[nH]cn4)C(=O)N[C@@H](Cc4ccc(O)cc4)C(=O)N[C@@H](CC(C)C)C(=O)N[C@@H](CC(N)=O)C(=O)N[C@@H](Cc4c[nH]c5ccccc45)C(=O)N[C@H](C(=O)N[C@H](C(=O)N[C@@H](CCCNC(=N)N)C(=O)N[C@@H](CCC(N)=O)C(=O)N(C)[C@@H](CCCNC(=N)N)C(=O)N[C@@H](Cc4ccc(O)cc4)C(N)=O)[C@@H](C)O)C(C)C)c(=O)c3c2)CC1 [Example 20] | > 6000 | > 6000 | > 6000 | 0.89 | 0.488
